Key:
[1] = target: Voltage-gated inwardly rectifying potassium channel KCNH2 (Homo sapiens, UniProt Q12809); assay: Inhibition of human ERG expressed in HEK-293 cells by voltage clamp electrophysiology assay
[2] = Apparent permeability in pig LLC-PK1 cells
[3] = target: T1, ATP-sensitive inward rectifier potassium channel 1 (Homo sapiens, UniProt P48048); assay: Inhibition of human ROMK expressed in CHO cells by whole cell voltage clamp electrophysiology assay; assay type: cell-based
T1 sequence (P48048 whole entry): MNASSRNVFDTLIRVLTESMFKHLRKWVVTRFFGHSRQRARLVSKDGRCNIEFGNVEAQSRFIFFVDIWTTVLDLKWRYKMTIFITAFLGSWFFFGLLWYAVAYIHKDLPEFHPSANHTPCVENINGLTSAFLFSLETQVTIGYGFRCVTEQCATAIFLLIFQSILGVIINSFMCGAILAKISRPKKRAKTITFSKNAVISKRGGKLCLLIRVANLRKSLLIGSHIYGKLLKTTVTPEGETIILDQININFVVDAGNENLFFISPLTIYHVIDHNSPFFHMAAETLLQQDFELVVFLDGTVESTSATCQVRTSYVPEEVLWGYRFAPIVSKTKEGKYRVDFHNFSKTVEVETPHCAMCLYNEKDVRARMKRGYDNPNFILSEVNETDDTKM

Homo sapiens = species on record: Homo sapiens; assay: Selectivity index, ratio of IC50 for human ERG to IC50 for human ROMK

Chain of Voltage-gated inwardly rectifying potassium channel KCNH2 (Q12809 whole entry): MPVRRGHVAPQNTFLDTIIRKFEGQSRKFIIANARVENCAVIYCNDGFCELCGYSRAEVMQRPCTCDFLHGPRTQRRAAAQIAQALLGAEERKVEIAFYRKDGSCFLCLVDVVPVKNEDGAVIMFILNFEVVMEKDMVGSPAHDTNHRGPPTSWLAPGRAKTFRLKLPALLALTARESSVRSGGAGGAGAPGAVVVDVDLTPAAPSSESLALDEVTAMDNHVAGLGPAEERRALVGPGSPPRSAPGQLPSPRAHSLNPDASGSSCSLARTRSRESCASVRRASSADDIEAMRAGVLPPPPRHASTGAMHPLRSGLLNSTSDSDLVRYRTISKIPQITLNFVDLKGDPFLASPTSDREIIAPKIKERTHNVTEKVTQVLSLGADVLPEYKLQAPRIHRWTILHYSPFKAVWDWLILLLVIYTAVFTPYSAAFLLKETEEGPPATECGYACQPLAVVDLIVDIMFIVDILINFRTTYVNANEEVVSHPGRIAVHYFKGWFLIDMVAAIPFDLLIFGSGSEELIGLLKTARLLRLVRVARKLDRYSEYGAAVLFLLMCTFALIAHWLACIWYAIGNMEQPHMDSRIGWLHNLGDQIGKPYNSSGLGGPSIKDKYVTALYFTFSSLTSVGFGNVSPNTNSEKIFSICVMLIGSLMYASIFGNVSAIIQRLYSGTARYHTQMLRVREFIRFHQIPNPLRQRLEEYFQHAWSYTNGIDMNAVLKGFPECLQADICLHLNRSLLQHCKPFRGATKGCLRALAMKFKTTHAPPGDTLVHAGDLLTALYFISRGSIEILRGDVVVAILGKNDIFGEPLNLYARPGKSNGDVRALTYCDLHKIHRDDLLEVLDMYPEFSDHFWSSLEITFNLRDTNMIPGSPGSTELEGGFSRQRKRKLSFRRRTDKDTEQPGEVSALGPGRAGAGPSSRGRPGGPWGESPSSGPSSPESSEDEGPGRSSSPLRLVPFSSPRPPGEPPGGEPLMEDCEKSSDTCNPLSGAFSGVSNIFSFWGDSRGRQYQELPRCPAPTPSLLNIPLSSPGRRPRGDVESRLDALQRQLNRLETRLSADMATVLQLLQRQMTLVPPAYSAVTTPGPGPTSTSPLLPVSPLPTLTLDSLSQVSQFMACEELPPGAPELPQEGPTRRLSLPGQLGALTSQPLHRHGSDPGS

| Papp [2] [nm/s] | IC50 [3] [µM] | Ratio (Homo sapiens) | SMILES | IC50 [1] [µM] |
| --- | --- | --- | --- | --- |
| 190 | 0.024 |  | Cc1c([C@@H](O)CN2CCC3(CC2)CCN(C2=CC(=O)OC2C)C3=O)ccc2c1COC2=O (some centres not stated) | 19 |
|  | 0.011 |  | Cc1c([C@@H](O)CN2CCC3(CC2)CCN(C2=CC(=O)CC2)C3=O)ccc2c1COC2=O |  |
| 200 |  |  | Cc1c([C@@H](O)CN2CCN(C[C@H](O)c3ccc4c(c3C)COC4=O)CC2)ccc2c1COC2=O [MK-7145] | 22 |
| 220 | 0.015 |  | CC1=C(N2CCC3(CCN(C[C@H](O)c4ccc5c(c4C)COC5=O)CC3)C2=O)CCC1=O |  |
| 330 | 0.006 |  | Cc1c([C@@H](O)CN2CCC3(CC2)CCN(C2=C(Cl)C(=O)OC2)C3=O)ccc2c1COC2=O |  |

The next lines start with the compound.

| SMILES | Papp [2] [nm/s] | IC50 [3] [µM] | Ratio (Homo sapiens) | IC50 [1] [µM] |
| --- | --- | --- | --- | --- |
| CC1=C(N2CCC3(CCN(C[C@H](O)c4ccc5c(c4C)COC5=O)CC3)C2=O)C(C)OC1=O (some centres not stated) | 200 | 0.098 |  | 20 |
| Cc1c([C@@H](O)CN2CCC3(CC2)CC(=O)N(C2=CC(=O)OC2)C3)ccc2c1COC2=O | 79 | 0.045 | 2000 | 90 |
| Cc1c([C@@H](O)CN2CCC3(CC2)CCN(C2=CC(=O)OC2)C3)ccc2c1COC2=O | 270 | 0.026 | 3400 | 90 |
| CCC1=C(N2CCC3(CCN(C[C@H](O)c4ccc5c(c4C)COC5=O)CC3)C2=O)COC1=O | 230 | 0.018 |  |  |
| CC1=C(N2C(=O)C3(CCN(C[C@H](O)c4ccc5c(c4C)COC5=O)CC3)CC2C)COC1=O (some centres not stated) | 180 | 0.018 |  | 18 |
| Cc1c([C@@H](O)CN2CCC3(CC2)CCN(C2=CC(=O)OC2)C3=O)ccc2c1COC2=O | 110 |  |  |  |
